Source: patent US10590105B2, “1,3-dihydroxy-phenyl derivatives useful as immunomodulators” (BRISTOL-MYERS SQUIBB COMPANY, priority 2016, dated 2020)

Molecular target: PD-1/PD-L1 interaction (PD-1-Ig / PD-L1-His) (Homo sapiens (Human), UniProt Q9NZQ7)
Assay: PD-1/PD-L1 Homogenous Time-Resolved Fluorescence (HTRF) binding assay
Settings: PD-1/PD-L1 HTRF binding assay; value given as number; read-out: Range or IC50
From the text: The ability of the compounds of formula (I) to bind to PD-L1 was investigated using a PD-1/PD-L1 Homogenous Time-Resolved Fluorescence (HTRF) binding assay.
Homogenous Time-Resolved Fluorescence (HTRF) Binding Assay.
The interaction of PD-1 and PD-L1 can be assessed using soluble, purified preparations of the extracellular domains of the two proteins. The PD-1 and PD-L1 protein extracellular domains were expressed as fusion proteins with detection tags, for PD-1, the tag was the Fc portion of Immunoglobulin (PD-1-Ig) and for PD-L1 it was the 6 histidine motif (PD-L1-His). All binding studies were performed in an HTRF assay buffer consisting of dPBS supplemented with 0.1% […] bovine serum albumin and 0.05% (v/v) Tween-20. For the h/PD-L1-His binding assay, inhibitors were pre-incubated with PD-L1-His (10 nM final) for 15 m in 4 μl of assay buffer, followed by addition of PD-1-Ig (20 nM final) in 1 μl of assay buffer and further incubation for 15 m. HTRF detection was achieved using europium crypate-labeled anti-Ig (1 nM final) and allophycocyanin (APC) labeled anti-His (20 nM final). Antibodies were diluted in HTRF detection buffer and 5 μl was dispensed on top of the binding reaction. The reaction mixture was allowed to equilibrate for 30 minutes and the resulting signal (665 nm/620 nm ratio) was obtained using an EnVision fluorometer. Additional binding assays were established between the human proteins PD-1-Ig/PD-L2-His (20 & 5 nM, respectively) and CD80-His/PD-L1-Ig (100 & 10 nM, respectively).
Recombinant Proteins. Human PD-1 (25-167) with a C-terminal human Fc domain of immunoglobulin G (Ig) epitope tag [hPD-1 (25-167)-3S-IG] and human PD-L1 (18-239) with a C-terminal His epitope tag [hPD-L1(18-239)-TVMV-His] were expressed in HEK293T cells and purified sequentially by ProteinA affinity chromatography and size exclusion chromatography. Human PD-L2-His and CD80-His was obtained through commercial sources.
Ranges are as follows: A=0.001 to 0.010 micromolar; B=0.011 to 0.150 micromolar; C=0.151 to 10 micromolar.

Sequence of PD-1/PD-L1 interaction (PD-1-Ig / PD-L1-His) (Q9NZQ7 other isoform, or with tags, fused parts or gaps): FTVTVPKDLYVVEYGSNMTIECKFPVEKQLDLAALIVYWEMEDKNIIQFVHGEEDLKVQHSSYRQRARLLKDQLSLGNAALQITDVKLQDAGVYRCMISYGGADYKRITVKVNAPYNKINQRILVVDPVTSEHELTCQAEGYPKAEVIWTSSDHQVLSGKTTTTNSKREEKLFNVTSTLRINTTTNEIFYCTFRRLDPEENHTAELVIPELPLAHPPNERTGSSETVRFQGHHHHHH

Row | SMILES | IC50 [nM]
1 | Cc1c(COc2cc(OCc3cncc(C#N)c3)c(CN[C@](C)(CO)C(=O)O)cc2Cl)cccc1-c1cnc2ccc(Br)cc2n1 [Example 1010, (R)-2-((4-((3-(7-bromoquinoxalin-2-yl)-2-methylbenzyl)oxy)-5-chloro-2-((5-cyanopyridin-3-yl)methoxy)benzyl)amino)-3-hydroxy-2-methylpropanoic acid] | 1570

Same assay, conditions: PD-1/PD-L1 HTRF binding assay; value given as range class; read-out: Range or IC50

Row | SMILES | IC50 [nM]
2 | Cc1nn(CCCCN2CC[C@H](O)C2)c(C)c1-c1cccc(COc2cc(OCc3cncc(C#N)c3)c(CN[C@](C)(CO)C(=O)O)cc2Cl)c1C [Example 2003, (R)-2-((5-chloro-2-((5-cyanopyridin-3-yl)methoxy)-4-((3-(1-(4-((S)-3-hydroxypyrrolidin-1-yl)butyl)-3,5-dimethyl-1H-pyrazol-4-yl)-2-methylbenzyl)oxy)benzyl)amino)-3-hydroxy-2-methylpropanoic acid] | 151 to 10000
3 | Cc1c(COc2cc(OCc3cncc(C#N)c3)c(CN[C@](C)(CO)C(=O)O)cc2Cl)cccc1-c1ccc2ocnc2c1 [Example 1012, (R)-2-((4-((3-(benzo[d]oxazol-5-yl)-2-methylbenzyl)oxy)-5-chloro-2-((5-cyanopyridin-3-yl)methoxy)benzyl)amino)-3-hydroxy-2-methylpropanoic acid] | 1 to 10
4 | Cc1c(COc2cc(OCc3cncc(C#N)c3)c(CN3CCCC[C@H]3C(=O)O)cc2Cl)cccc1-c1cccc(OCCCN2CC[C@@H](O)C2)n1 [Example 1030, (S)-1-(5-chloro-2-((5-cyanopyridin-3-yl)methoxy)-4-((3-(6-(3-((R)-3-hydroxypyrrolidin-1-yl)propoxy)pyridin-2-yl)-2-methylbenzyl)oxy)benzyl)piperidine-2-carboxylic acid] | 151 to 10000
5 | Cc1c(COc2cc(OCc3cncc(C#N)c3)c(CN[C@](C)(CO)C(=O)O)cc2Cl)cccc1-c1cc2ccccc2cn1 [Example 1007, (R)-2-((5-chloro-2-((5-cyanopyridin-3-yl)methoxy)-4-((3-(isoquinolin-3-yl)-2-methylbenzyl)oxy)benzyl)amino)-3-hydroxy-2-methylpropanoic acid] | 151 to 10000
6 | Cc1c(COc2cc(OCc3cncc(C#N)c3)c(CNC(C)(C)C(=O)O)cc2Cl)cccc1-c1ccc2ncoc2c1 [Example 1016, 2-((4-((3-(benzo[d]oxazol-6-yl)-2-methylbenzyl)oxy)-5-chloro-2-((5-cyanopyridin-3-yl)methoxy)benzyl)amino)-2-methylpropanoic acid] | 1 to 10
7 | Cc1c(COc2cc(OCc3cncc(C#N)c3)c(CN3CCCC[C@H]3C(=O)O)cc2Cl)cccc1-c1ccc2ocnc2c1 [Example 1041, (S)-1-(4-((3-(benzo[d]oxazol-5-yl)-2-methylbenzyl)oxy)-5-chloro-2-((5-cyanopyridin-3-yl)methoxy)benzyl)piperidine-2-carboxylic acid] | 1 to 10
8 | Cc1nn(-c2cccc(COc3cc(OCc4cncc(C#N)c4)c(CN4CC[C@@H](O)C4)cc3Cl)c2C)c(C)c1CN1CC[C@@H](O)C1 [Example 2007, 5-((4-chloro-2-(((R)-3-hydroxypyrrolidin-1-yl)methyl)-5-((3-(4-(((R)-3-hydroxypyrrolidin-1-yl)methyl)-3,5-dimethyl-1H-pyrazol-1-yl)-2-methylbenzyl)oxy)phenoxy)methyl)nicotinonitrile] | 151 to 10000
9 | Cc1nn(-c2cccc(COc3cc(OCc4cncc(C#N)c4)c(CNCCN4CC[C@@H](O)C4)cc3Cl)c2C)c(C)c1CNCCN1CC[C@@H](O)C1 [Example 2006, 5-((4-chloro-2-(((2-((R)-3-hydroxypyrrolidin-1-yl)ethyl)amino)methyl)-5-((3-(4-(((2-((R)-3-hydroxypyrrolidin-1-yl)ethyl)amino)methyl)-3,5-dimethyl-1H-pyrazol-1-yl)-2-methylbenzyl)oxy)phenoxy)methyl)nicotinonitrile] | 151 to 10000
10 | Cc1c(COc2cc(OCc3cncc(C#N)c3)c(CNC(C)(C)C(=O)O)cc2Cl)cccc1-c1ccc2ccoc2c1 [Example 1018, 2-((4-((3-(benzofuran-6-yl)-2-methylbenzyl)oxy)-5-chloro-2-((5-cyanopyridin-3-yl)methoxy)benzyl)amino)-2-methylpropanoic acid] | 11 to 150
11 | Cc1c(COc2cc(OCc3cncc(C#N)c3)c(CN3CCCC[C@H]3C(=O)O)cc2Cl)cccc1-c1ccc2nccnc2c1 [Example 1032, (S)-1-(5-chloro-2-((5-cyanopyridin-3-yl)methoxy)-4-((2-methyl-3-(quinoxalin-6-yl)benzyl)oxy)benzyl)piperidine-2-carboxylic acid] | 11 to 150
12 | Cc1c(COc2cc(OCc3cncc(C#N)c3)c(CN[C@](C)(CO)C(=O)O)cc2Cl)cccc1-c1ccc2ccccc2n1 [Example 1004, (R)-2-((5-chloro-2-((5-cyanopyridin-3-yl)methoxy)-4-((2-methyl-3-(quinolin-2-yl)benzyl)oxy)benzyl)amino)-3-hydroxy-2-methylpropanoic acid] | 151 to 10000
13 | Cc1c(COc2cc(OCc3cncc(C#N)c3)c(CN3CCCC[C@H]3C(=O)O)cc2Cl)cncc1-c1cccc(OCCCN2CC[C@@H](O)C2)c1C [Example 2005, (S)-1-(5-chloro-2-((5-cyanopyridin-3-yl)methoxy)-4-((5-(3-(3-((R)-3-hydroxypyrrolidin-1-yl)propoxy)-2-methylphenyl)-4-methylpyridin-3-yl)methoxy)benzyl)piperidine-2-carboxylic acid] | 1 to 10
14 | Cc1c(COc2cc(OCc3cncc(C#N)c3)c(CNC(C)(CO)CO)cc2Cl)cncc1-c1cccc(OCCCN2CC[C@@H](O)C2)c1C [Example 2008, (R)-5-((4-chloro-2-(((1,3-dihydroxy-2-methylpropan-2-yl)amino)methyl)-5-((5-(3-(3-(3-hydroxypyrrolidin-1-yl)propoxy)-2-methylphenyl)-4-methylpyridin-3-yl)methoxy)phenoxy)methyl)nicotinonitrile] | 1 to 10
15 | Cc1c(COc2cc(OCc3cncc(C#N)c3)c(CN[C@](C)(CO)C(=O)O)cc2Cl)cccc1-c1ccc2ccoc2c1 [Example 1019, (R)-2-((4-((3-(benzofuran-6-yl)-2-methylbenzyl)oxy)-5-chloro-2-((5-cyanopyridin-3-yl)methoxy)benzyl)amino)-3-hydroxy-2-methylpropanoic acid] | 1 to 10
16 | CCC(CO)(CO)NCc1cc(Cl)c(OCc2nccc(-c3cccc(OCCCN4CC[C@@H](O)C4)c3C)c2C)cc1OCc1cncc(C#N)c1 [Example 2013, (R)-5-((4-chloro-2-(((1-hydroxy-2-(hydroxymethyl)butan-2-yl)amino)methyl)-5-((4-(3-(3-(3-hydroxypyrrolidin-1-yl)propoxy)-2-methylphenyl)-3-methylpyridin-2-yl)methoxy)phenoxy)methyl)nicotinonitrile] | 1 to 10
17 | Cc1c(COc2cc(OCc3cncc(C#N)c3)c(CN[C@@H](CCCNC(=N)N)C(=O)O)cc2Cl)cccc1-c1ccc2occc2c1 [Example 1014, (S)-2-((4-((3-(benzofuran-5-yl)-2-methylbenzyl)oxy)-5-chloro-2-((5-cyanopyridin-3-yl)methoxy)benzyl)amino)-5-guanidinopentanoic acid] | 151 to 10000
18 | Cc1c(COc2cc(OCc3cncc(C#N)c3)c(CN[C@@](C)(CO)C(=O)O)cc2Cl)cccc1-c1ccc2nccnc2c1 [Example 1036, (S)-2-((5-chloro-2-((5-cyanopyridin-3-yl)methoxy)-4-((2-methyl-3-(quinoxalin-6-yl)benzyl)oxy)benzyl)amino)-3-hydroxy-2-methylpropanoic acid] | 1 to 10
19 | Cc1c(COc2cc(OCc3cncc(C#N)c3)c(CN[C@](C)(CO)C(=O)O)cc2Cl)cccc1-c1ccc2oc(CCN3CC[C@@H](O)C3)nc2c1 [Example 1028, (R)-2-((5-chloro-2-((5-cyanopyridin-3-yl)methoxy)-4-((3-(2-(2-((R)-3-hydroxypyrrolidin-1-yl)ethyl)benzo[d]oxazol-5-yl)-2-methylbenzyl)oxy)benzyl)amino)-3-hydroxy-2-methylpropanoic acid] | 1 to 10
20 | Cc1c(COc2cc(OCc3cncc(C#N)c3)c(CNC(C)(C)C(=O)O)cc2Cl)cccc1-c1ccc2scnc2c1 [Example 1022, 2-((4-((3-(benzo[d]thiazol-5-yl)-2-methylbenzyl)oxy)-5-chloro-2-((5-cyanopyridin-3-yl)methoxy)benzyl)amino)-2-methylpropanoic acid] | 11 to 150
21 | Cc1c(OCCCN2CC[C@@H](O)C2)cccc1-c1ccnc(COc2cc(OCc3cncc(C#N)c3)c(CN[C@@](C)(CO)C(=O)O)cc2Cl)c1C [Example 2012, (S)-2-((5-chloro-2-((5-cyanopyridin-3-yl)methoxy)-4-((4-(3-(3-((R)-3-hydroxypyrrolidin-1-yl)propoxy)-2-methylphenyl)-3-methylpyridin-2-yl)methoxy)benzyl)amino)-3-hydroxy-2-methylpropanoic acid] | 1 to 10
